Experimental data published in patent US20120101076A1, “CARBONATE DERIVATIVES FOR THE TREATMENT OF COUGH” (priority 2010, published 2012).

Columns and labels:
[1] = system: guinea pigs (citric acid-induced cough); assay: citric acid cough challenge in guinea pigs; assay type: in vivo, guinea pig; details: for percentage (%) reduction of number of coughs / percentage (%) of reduction of number of cough efforts: mean±SEM
Description: Evaluation of the activities of Compound Ia and tiotropium bromide in an animal cough challenge model.
Male Dunkin-Hartley guinea pigs (250-350 g, Charles-River, Italy) were acclimatized in cages, (24±0.5° C.) for 1 week after delivery, with free access to water and standard rodent diet. One group of guinea pigs was actively sensitized by an intra-peritoneal injection of ovalbumin (100 mg/kg) followed by a subcutaneous injection of ovalbumin (100 mg/kg). Controls received the vehicle alone (0.9% NaCl).
After the period of acclimatization to laboratory conditions, animals were individually placed in a transparent perspex box (20×10×10 cm, Vetrotecnica, Italy) ventilated with a constant airflow of 400 ml/minute. A tussive agent (citric acid, 0.25 M) was nebulized via a mini-ultrasonic nebulizer (Ugo Basile, Italy). […] The numbers of elicited cough efforts were counted by a blind observer.
All experiments were carried out at the same time of day, starting at 9.00 a.m. Guinea-pigs received Compound Ia (1 mM) or tiotropium bromide (0.3 mM) or their vehicle (distilled water) for 10 minutes by aerosol at least 3 hour before the citric acid challenge (0.25 M; for 10 minute; by aerosol), in order to elicit cough.
Values are presented as mean±SEM. Comparisons among groups were made by one way analysis of variance (ANOVA) and the Student's t-test or the Bonferroni's test when appropriate. A p value of <0.05 was considered significant.

postviral coughing = details: inhaled, relative to placebo; cited from earlier work
[2] = system: ovalbumin-sensitized guinea-pigs; details: administered intratracheally; cited from earlier work
[3] = system: adult nonsmokers with acute viral upper respiratory tract infection; details: once daily 18 μg by inhalation for 7 days; cited from earlier work

Structure (SMILES): O=C(OC(c1cccc(F)c1)c1cccc(F)c1)O[C@H]1C[N+]2(CC(=O)c3cccs3)CCC1CC2.[Cl-] [Compound Ia]
- number of cough efforts induced by citric acid (statistical significance) ([1]; 1 mM by aerosol, 3 hours before citric acid 0.25 M): significantly reduced
- percentage (%) reduction of number of coughs ([1]; control, non-sensitized animals, 1 mM by aerosol, 3 hours before citric acid 0.25 M): 17.4±6.4%
- percentage (%) reduction of number of coughs ([1]; ovalbumin-sensitized animals, 1 mM by aerosol, 3 hours before citric acid 0.25 M): 37.2±5.9%

Structure (SMILES): CC(C)[N+]1(C)[C@@H]2CC[C@H]1C[C@@H](OC(=O)C(CO)c1ccccc1)C2 (stereo partly drawn) [ipratropium bromide]
- suppression of subjectively described postviral coughing (postviral coughing): effective

Structure (SMILES): C[N+]1(C)[C@@H]2C[C@@H](OC(=O)C(O)(c3cccs3)c3cccs3)C[C@H]1[C@@H]1O[C@@H]12 [tiotropium bromide]
- cough elicited by inhalation of citric acid [2]: able to reduce cough
- number of cough efforts induced by citric acid (statistical significance) ([1]; 0.3 mM by aerosol, 3 hours before, both animal groups): did not reach a statistical significance
- percentage (%) of reduction of number of cough efforts ([1]; control animals, 0.3 mM by aerosol, 3 hours before citric acid 0.25 M): 20.2±9.9%
- percentage (%) of reduction of number of cough efforts ([1]; ovalbumin-sensitized animals, 0.3 mM by aerosol, 3 hours before citric acid 0.25 M): 28.1±11%
- cough reflex sensitivity to inhaled capsaicin [3]: capable of inhibiting cough reflex sensitivity
